Legend:
RET(M918T) = target: T1, RET(M918T) (Homo sapiens, UniProt P07949, M918T); test: KinomeScan profiling; assay type: binding; settings: 1 µM CHMFL-074; read-out: % Control
T1 construct: purchased DiscoveRx (KinomeScan service)

[1] = target: T2, ABL1(Q252H)-nonphosphorylated (Homo sapiens, UniProt P00519, Q252H); test: KinomeScan profiling; assay type: binding; settings: 1 µM CHMFL-074; read-out: % Control
T2 construct: purchased DiscoveRx (KinomeScan service)

BCR-ABL = target: T3, BCR-ABL (Homo sapiens, UniProt P00519); test: BCR-ABL auto-phosphorylation (Y245) immunoblotting in K562 cells; assay type: cell-based
T3 construct: BCR N-terminal part (natural fusion partner of p210 BCR-ABL); endogenous in cells; host or cells: K562
Procedure: Cells were washed with ice cold phosphate buffered saline (PBS), lysed using radio-immunoprecipitation (RIPA) buffer [150 mM NaCl, 1% (vol/vol) Nonidet P-40, 0.5% (wt/vol) sodium deoxycholate, 0.1% (wt/vol) SDS] in 50 mM Tris HCl (pH 8.0) supplemented with protease and phosphatase inhibitors (Thermo, USA). Protein concentrations were determined using the BCA Protein Assay kit (Beyotime, China) according to the manufacturer's protocol. Proteins were separated by SDS-PAGE and transferred to an Immobilon-P PVDF membrane (Millipore, USA), and blocked in 5% dry milk in Tris Buffered Saline, with Tween 20 (TBST). Membranes were incubated with primary and secondary antibodies, and target proteins were detected with ECL detection reagent (Pierce, USA). β-Actin (Sigma-Aldrich) served as a loading control. Phospho-c-Abl (Tyr245)(73E5) Rabbit mAb (2868), c-Abl antibody (2862), STAT5 (3H7) Rabbit mAb (9358), Phospho-STAT5 (Tyr694)(C71E5) Rabbit mAb (9314), Akt (pan)(C67E7) Rabbit mAb (4691), Phospho-Akt (Thr308) (244F9) Rabbit mAb (4056), Phospho-Akt (Ser473) (D9E) XP® Rabbit mAb (4060), Phospho-CrkL (Tyr207) antibody (3181), CrkL (32H4) Mouse mAb (3182), Phospho-p44/42 MAPK (Erk1/2) (Thr202/Tyr204) (197G2) Rabbit mAb (4377), p44/42 MAPK (Erk1/2) (137F5) Rabbit mAb (4695) antibodies were obtained from Cell Signaling Technology (MA, USA).

PDGFRα = PDGFRα (Homo sapiens, UniProt P16234); test: Promega ADP-Glo biochemical kinase assay; settings: 100 μM ATP, read-out: IC50 against PDGFRα
Procedure: (§1) The ADP-Glo™ kinase assay (Promega, USA) was used to screen CHMFL-074 for its PDGFRα/PDGFRβ inhibition effects. […] The reaction in each tube was started immediately by adding ATP and kept going for an hour under 37°C. After the tube cooled for 5 minutes at room temperature, 5 μL solvent reactions were carried out in a 384-well plate. Then 5 μL of ADP-Glo™ reagent was added into each well to stop the reaction and consume the remaining […] within 40 minutes. […] Luminescence signal was measured with an automated plate reader (Envision, USA) and the dose-response curve was fitted using Prism 5.0 (GraphPad Software Inc., San Diego, CA).

PDGFRβ = PDGFRβ (Homo sapiens, UniProt P09619); test: Promega ADP-Glo biochemical kinase assay; settings: 100 μM ATP, read-out: IC50 against PDGFRβ
Procedure: as §1

[2] = target: T4, ABL1(M351T)-phosphorylated (Homo sapiens, UniProt P00519, M351T); test: KinomeScan profiling; assay type: binding; settings: 1 µM CHMFL-074; read-out: % Control
T4 construct: purchased DiscoveRx (KinomeScan service)

[3] = test system: K562, KU812 and MEG-01 cells; test: Cell cycle analysis; assay type: cell-based; settings: K562 (24 h), KU812 (12 h), MEG-01 (24 h)
Procedure: K562, KU812 and MEG01 cells were treated with serially diluted CHMFL-074 for 12 or 24 hours. The cells were fixed in 70% cold ethanol and incubated at −20°C overnight, then stained with PI/RNase staining buffer (BD Pharmingen). Flow cytometry was performed using a FACS Calibur (BD), and results were analyzed by ModFit software.

ABL2 = target: T5, ABL2 (Homo sapiens, UniProt P42684); test: KinomeScan profiling; assay type: binding; settings: 1 µM CHMFL-074; read-out: % Control
T5 construct: purchased DiscoveRx (KinomeScan service)

CHO = test: Anti-proliferation, intact cancer cell lines; assay type: cell-based, Chinese hamster; settings: Cricetulus griseus, 72 h
Procedure: The K562 (CML), KU812 (CML), MEG-01 (CML), MV4-11 (AML), MOLM14 (AML), U937 (AML), REC-1 (Human B-cell lymphoma cell), HL-60 (Human promyelocytic leukemia cells), MEC-1(CLL), CHL (Hamster lung cell), CHO (Hamster ovary cell) cell lines were obtained from American Type Culture Collection (Manassas, VA). All the cells were grown in a humidified incubator (Thermo, USA) at 37°C under 5% CO2. CHO cells were maintained in DMEM supplemented with 10% FBS, 1% penicillin/strepto-mycin. MV4-11 (AML) were grown in IMDM supplemented with 10% FBS, 1% penicillin/streptomycin. […] For suspension cells, cells were collected by spinning down at 800 rpm/min for 5 min before use.
A density of 1 × 10^4 to 2.5 × 10^4 cells/mL cells were mixed with various concentrations of compounds then 100 μL suspension was added to each well and incubated for 72 hours. Cell viability was determined using the CellTiter-Glo assay (Promega, USA) or CCK-8 assay (Beboy, China). Both assays were performed according to the manufacturer instructions. For CellTiter-Glo assay, luminescence was determined in a multi-label reader (Envision, PerkinElmer, USA). […] Data were normalized to control group (DMSO). GI50 were calculated using Prism 6.0 (GraphPad Software, San Diego, CA).

[4] = target: T6, ABL1(H396P)-nonphosphorylated (Homo sapiens, UniProt P00519, H396P); test: KinomeScan profiling; assay type: binding; settings: 1 µM CHMFL-074; read-out: % Control
T6 construct: purchased DiscoveRx (KinomeScan service)

[5] = test system: normal human B-cells purified from the peripheral blood; test: Proliferation assay on normal cells from peripheral blood; assay type: cell-based; settings: at 1 μM
Procedure: Mononuclear cells were isolated from CML patients or healthy donors by density-gradient centrifugation through Ficoll (Beijing Solarbio Science & Technology Co., Ltd., Beijing, China) at 400 g for 30 min, followed by two washes in 1× phosphate-buffered saline. Cells were then cultured in liquid culture (RPMI1640, supplemented with 20% FBS). All blood samples from CML patients and healthy donors were obtained through written consent under approval of the Chinese Academy of Sciences Institutional Review Board. The ethics committees approved the consent Procedure. CML primary patient cells were tested in liquid culture (RPMI1640, supplemented with 20% FBS) in the presence of different concentrations of CHMFL-074. The trypan blue exclusion assay was used for quantification of cells for seeding for before Cell-Titer Glo assays (Promega, USA). The Cell-Titer Glo assay was used for proliferation studies and carried out according to manufacturer's instructions. Cell viability is reported as percentages of control (untreated) cells.

T5 sequence (P42684 whole entry): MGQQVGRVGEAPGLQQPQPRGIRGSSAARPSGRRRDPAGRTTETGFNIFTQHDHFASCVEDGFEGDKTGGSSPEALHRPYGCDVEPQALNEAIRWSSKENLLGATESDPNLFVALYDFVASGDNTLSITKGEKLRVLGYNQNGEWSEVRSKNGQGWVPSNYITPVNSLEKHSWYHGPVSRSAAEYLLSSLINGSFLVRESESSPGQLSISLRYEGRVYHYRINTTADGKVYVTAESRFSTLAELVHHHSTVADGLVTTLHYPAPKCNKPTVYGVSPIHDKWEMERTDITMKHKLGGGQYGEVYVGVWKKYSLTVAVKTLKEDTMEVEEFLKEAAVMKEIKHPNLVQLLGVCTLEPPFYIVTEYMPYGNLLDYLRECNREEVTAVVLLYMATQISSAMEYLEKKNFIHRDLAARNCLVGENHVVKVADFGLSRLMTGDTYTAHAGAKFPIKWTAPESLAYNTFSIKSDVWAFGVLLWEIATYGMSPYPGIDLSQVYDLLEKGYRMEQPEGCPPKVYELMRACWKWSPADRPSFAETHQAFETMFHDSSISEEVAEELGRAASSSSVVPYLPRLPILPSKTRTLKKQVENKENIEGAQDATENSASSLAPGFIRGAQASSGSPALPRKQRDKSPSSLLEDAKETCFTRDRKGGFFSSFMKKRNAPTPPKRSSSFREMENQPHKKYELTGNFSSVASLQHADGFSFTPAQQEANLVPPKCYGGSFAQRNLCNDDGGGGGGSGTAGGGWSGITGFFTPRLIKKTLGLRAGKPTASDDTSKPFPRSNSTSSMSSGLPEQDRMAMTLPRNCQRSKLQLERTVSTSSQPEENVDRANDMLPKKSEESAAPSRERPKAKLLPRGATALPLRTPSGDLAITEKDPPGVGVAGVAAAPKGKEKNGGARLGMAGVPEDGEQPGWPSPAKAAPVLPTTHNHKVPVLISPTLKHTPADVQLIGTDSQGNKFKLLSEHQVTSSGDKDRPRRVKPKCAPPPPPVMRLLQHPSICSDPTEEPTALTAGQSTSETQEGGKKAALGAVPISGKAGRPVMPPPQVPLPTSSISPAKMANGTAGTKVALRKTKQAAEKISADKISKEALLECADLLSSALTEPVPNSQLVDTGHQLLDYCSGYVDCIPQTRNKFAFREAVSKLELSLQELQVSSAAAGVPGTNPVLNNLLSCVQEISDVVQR
T1 sequence (P07949 29-1114 M918T): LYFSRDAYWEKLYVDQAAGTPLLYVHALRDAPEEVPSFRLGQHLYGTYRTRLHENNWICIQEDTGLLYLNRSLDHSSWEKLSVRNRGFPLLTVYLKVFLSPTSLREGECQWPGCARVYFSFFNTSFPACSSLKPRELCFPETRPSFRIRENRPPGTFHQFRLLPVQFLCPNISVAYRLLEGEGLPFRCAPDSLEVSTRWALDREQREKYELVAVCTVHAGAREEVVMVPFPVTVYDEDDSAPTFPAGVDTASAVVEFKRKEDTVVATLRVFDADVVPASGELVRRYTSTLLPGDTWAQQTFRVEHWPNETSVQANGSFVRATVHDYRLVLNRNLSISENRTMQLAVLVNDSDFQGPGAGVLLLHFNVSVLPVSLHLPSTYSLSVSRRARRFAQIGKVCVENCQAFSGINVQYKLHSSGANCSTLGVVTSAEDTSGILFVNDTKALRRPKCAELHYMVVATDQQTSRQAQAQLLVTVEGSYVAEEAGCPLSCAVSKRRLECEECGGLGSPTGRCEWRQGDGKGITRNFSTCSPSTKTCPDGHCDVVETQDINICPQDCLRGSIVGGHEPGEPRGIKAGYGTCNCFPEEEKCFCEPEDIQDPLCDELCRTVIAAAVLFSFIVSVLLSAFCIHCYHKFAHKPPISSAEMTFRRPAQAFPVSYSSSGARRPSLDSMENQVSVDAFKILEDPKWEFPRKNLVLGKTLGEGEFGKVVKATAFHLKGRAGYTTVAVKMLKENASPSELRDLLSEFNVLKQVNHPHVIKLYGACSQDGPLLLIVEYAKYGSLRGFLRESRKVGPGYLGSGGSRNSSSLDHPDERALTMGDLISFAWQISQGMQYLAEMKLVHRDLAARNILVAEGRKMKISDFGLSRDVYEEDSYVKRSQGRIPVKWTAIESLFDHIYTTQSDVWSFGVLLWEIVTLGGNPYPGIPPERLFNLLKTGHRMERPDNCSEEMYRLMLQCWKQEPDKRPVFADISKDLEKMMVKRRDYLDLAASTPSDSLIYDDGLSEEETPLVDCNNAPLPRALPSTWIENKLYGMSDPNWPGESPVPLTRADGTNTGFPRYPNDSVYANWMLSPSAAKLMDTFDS
Chain of PDGFRα (P16234 24-1089): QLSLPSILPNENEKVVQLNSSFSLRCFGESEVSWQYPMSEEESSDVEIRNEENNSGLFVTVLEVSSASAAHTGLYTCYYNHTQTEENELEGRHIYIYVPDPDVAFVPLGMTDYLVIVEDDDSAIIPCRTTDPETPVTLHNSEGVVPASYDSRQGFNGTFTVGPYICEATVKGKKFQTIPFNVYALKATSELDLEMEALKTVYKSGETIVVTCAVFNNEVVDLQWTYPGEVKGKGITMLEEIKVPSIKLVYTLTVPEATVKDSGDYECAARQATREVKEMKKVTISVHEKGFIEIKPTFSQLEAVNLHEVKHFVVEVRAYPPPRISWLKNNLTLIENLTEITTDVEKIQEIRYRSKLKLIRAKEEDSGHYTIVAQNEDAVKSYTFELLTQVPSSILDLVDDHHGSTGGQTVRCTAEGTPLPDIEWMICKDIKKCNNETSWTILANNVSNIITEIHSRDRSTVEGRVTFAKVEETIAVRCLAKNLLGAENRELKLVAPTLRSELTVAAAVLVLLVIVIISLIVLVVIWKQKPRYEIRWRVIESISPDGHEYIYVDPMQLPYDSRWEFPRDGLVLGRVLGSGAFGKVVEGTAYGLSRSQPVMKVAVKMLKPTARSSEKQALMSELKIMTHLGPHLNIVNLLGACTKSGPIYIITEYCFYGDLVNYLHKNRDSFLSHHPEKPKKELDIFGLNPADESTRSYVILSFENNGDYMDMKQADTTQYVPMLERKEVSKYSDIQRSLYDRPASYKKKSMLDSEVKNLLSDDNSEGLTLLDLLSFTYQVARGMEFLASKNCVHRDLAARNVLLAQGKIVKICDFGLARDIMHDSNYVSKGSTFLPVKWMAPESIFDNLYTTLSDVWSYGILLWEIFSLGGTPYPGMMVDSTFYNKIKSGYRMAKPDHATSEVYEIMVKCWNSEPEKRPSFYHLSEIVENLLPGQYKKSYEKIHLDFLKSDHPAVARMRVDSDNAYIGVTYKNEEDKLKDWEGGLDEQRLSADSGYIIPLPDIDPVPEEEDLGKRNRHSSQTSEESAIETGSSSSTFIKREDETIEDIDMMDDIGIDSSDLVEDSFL
Chain of PDGFRβ (P09619 33-1106): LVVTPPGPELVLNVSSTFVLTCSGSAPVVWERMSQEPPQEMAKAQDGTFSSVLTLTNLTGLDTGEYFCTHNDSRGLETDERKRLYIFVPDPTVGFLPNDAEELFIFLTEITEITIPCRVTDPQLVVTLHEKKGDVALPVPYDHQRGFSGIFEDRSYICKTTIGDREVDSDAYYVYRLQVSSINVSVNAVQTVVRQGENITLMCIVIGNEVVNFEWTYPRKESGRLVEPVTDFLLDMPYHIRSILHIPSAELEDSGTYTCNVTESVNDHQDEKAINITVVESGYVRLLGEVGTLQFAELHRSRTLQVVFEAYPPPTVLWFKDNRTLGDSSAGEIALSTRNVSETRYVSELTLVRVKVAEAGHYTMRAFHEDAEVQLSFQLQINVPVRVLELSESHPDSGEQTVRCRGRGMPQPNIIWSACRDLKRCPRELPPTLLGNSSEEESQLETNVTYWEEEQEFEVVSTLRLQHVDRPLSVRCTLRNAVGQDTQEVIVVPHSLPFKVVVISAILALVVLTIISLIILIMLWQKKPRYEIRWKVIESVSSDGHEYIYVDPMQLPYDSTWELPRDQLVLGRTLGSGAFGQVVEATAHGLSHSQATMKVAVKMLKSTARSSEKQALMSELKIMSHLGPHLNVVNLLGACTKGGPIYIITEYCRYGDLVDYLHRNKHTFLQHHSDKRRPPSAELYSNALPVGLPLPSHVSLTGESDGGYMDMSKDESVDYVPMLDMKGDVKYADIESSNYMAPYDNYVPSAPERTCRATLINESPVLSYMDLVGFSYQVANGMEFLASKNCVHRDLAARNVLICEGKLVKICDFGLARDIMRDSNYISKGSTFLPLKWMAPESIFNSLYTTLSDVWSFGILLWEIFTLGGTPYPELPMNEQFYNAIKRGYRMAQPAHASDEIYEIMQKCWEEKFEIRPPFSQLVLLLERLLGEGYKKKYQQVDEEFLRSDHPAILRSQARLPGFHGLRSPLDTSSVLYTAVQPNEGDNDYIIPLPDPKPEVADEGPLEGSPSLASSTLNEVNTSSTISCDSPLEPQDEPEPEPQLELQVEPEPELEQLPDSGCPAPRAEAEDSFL

SMILES: Cc1ccc(NC(=O)c2ccc(CN3CCN(C)CC3)c(C(F)(F)F)c2)cc1OC1CCN(C(=O)c2cccnc2)CC1 [CHMFL-074]
- remaining binding at 1 µM (RET(M918T)): 0.15%
- remaining binding at 1 µM [1]: 0.75%
- EC50 (BCR-ABL): < 0.1 µM
- IC50 (PDGFRα): 0.071 µM
- IC50 (PDGFRβ): 0.088 µM
- remaining binding at 1 µM [2]: 1%
- concentration inducing G0/G1 phase cell cycle arrest [3]: ≥ 0.3 µM
- remaining binding at 1 µM (ABL2): 0.8%
- GI50 (CHO): > 10 µM
- remaining binding at 1 µM [4]: 0.15%
- inhibitory activity against normal human B-cells [5]: did not show any inhibitory activities

Source: paper PMC5216742, “Discovery and characterization of a novel potent type II native and mutant BCR-ABL inhibitor (CHMFL-074) for Chronic Myeloid Leukemia (CML)” (Oncotarget, 2016)
